Source: patent US9340551B2, “Inhibitors of bacterial type III secretion system” (MICROBIOTIX, INC., priority 2011, dated 2016)
Like-named read-outs stand apart in the source and are kept apart here.

Key:
[1] = system: T3SS-mediated secretion of ExoS′-βLA fusion protein, P. aeruginosa strain MDM973; assay: ExoS′-βLA effector-β-lactamase secretion assay (nitrocefin cleavage); conditions: for IC50: Pseudomonas aeruginosa; for IC50 in the ExoS′βLA assay versus reference inhibitor MBX-1641, in words: FIG. 2; for inhibition of ExoS′-βLA secretion, in words: FIG. 4, concentration-dependence; for Secretion, % @50 μM: Table 4; for performance in T3SS-mediated secretion relative to MBX-1641, in words: α-propyl and α-isopropyl analogs
[2] = Mammalian cytotoxicity (MTS conversion, serum-free medium); format: cell-based, human; conditions: human, HeLa cells
[3] = system: T3SS-mediated translocation (ExoU intoxication of CHO cells); assay: Inhibition of P. aeruginosa ExoU-dependent CHO cell killing (LDH release); conditions: Pseudomonas aeruginosa
Protocol: Rescue of CHO cells from T3SS-mediated cytotoxicity of translocated effector protein ExoU was measured using a lactate dehydrogenase (LDH) release assay as previously reported (Lee, et al., 2005, Infect. Immun., 73:1695-705) except that infection with P. aeruginosa was carried out for 2 hr in the absence of gentamicin. Percent cytotoxicity (% LDH release) was calculated relative to that of the uninfected control, which was set at 0% LDH release, and that of cells infected with P. aeruginosa unprotected by test compound (100% LDH release). LDH released from unprotected, infected cells reached at least 80% of the value obtained from complete lysis with 1% Triton X-100 in the 2 hr timeframe of this experiment.

HeLa cells = assay: Mammalian cytotoxicity (MTS conversion, serum-free medium); format: cell-based, human; conditions: Table 4; average of 1-20 determinations; read-out: Ave. CC50
[4] = Table 4, average of 1-20 determinations, read-out: Ave. CC50
[5] = read-out: Ave. Translocation IC50

Structure (SMILES) | IC50 ([1]; read-out: Ave. Secretion IC50) | IC50 [3, 5] | melting point | further results
CC(Oc1ccc(Cl)cc1Cl)C(=O)NCc1ccc2c(c1)OCO2 (racemic) [MBX-1641, N-(benzo[d][1,3]dioxol-5-ylmethyl)-2-(2,4-dichlorophenoxy)propanamide, reference compound] | 7 µM | – | – | –
CCC(Oc1ncc(Cl)cc1Cl)C(=O)NCc1ccc2c(c1)OCO2 (racemic) [MBX-2263] | 2 µM | 17 µM | – | CC50 at 3 days [2, 4]: > 100 µM; IC50 in the ExoS′βLA assay versus reference inhibitor MBX-1641, in words [1]: improvements; inhibition of ExoS′-βLA secretion, in words [1]: potent inhibition of secretion
CCC(Oc1ncc(Cl)cc1Cl)C(=O)NCc1ccc2sccc2c1 (racemic) [MBX-2359, N-(benzo[b]thiophen-5-ylmethyl)-2-(3,5-dichloropyridin-2-yloxy)butanamide] | 1.5 µM | – | – | inhibition of ExoS′-βLA secretion, in words [1]: potent inhibition of secretion
CC(Oc1ccc(Cl)cc1Cl)C(=O)NCc1ccc(F)cc1 (centres unmarked) [MBX-1642] | 9.8 µM | – | – | –
COc1ccc(CNC(=O)C(C)Oc2ccc(Cl)cc2Cl)cc1 (centres unmarked) [MBX-1940] | – | – | 77 °C | –
COc1ccc(CNC(=O)C(C)Oc2ccc(Cl)cc2Cl)cc1OC (centres unmarked) [MBX-1942] | – | – | 127 °C | –
CCC(Oc1ccc(Cl)cc1Cl)C(=O)NCc1ccc2c(c1)OCO2 (centres unmarked) [MBX-2081] | 3.9 µM | 4.2 µM | 112 °C | CC50 at 3 days ([2]; Table 3, serum-free media, read-out: CC50): > 200 µM; CC50 (HeLa cells): > 200 µM; IC50 in the ExoS′βLA assay versus reference inhibitor MBX-1641, in words [1]: improvements; IC50 ([1]; read-out: Secretion IC50): 3.9 µM; SI, Selectivity Index (CC50/secretion IC50) ([1]; Table 3, HeLa CC50 / secretion IC50): >50; increase in potency as a T3SS inhibitor relative to MBX-1641 ([1]; α-ethyl analog versus MBX-1641): 3-4 fold; IC50 ([3]; read-out: Translocation IC50): 4.2 µM
CCC(Oc1ccc(Cl)cc1Cl)C(=O)NCc1ccc(OC)c(OC)c1 (centres unmarked) [MBX-2082] | 16.3 µM | > 100 µM | 117 °C | –
CCC(Oc1ccc(Cl)cc1Cl)C(=O)NCc1ccc(OC)cc1 (centres unmarked) [MBX-2083] | 8.1 µM | 29.3 µM | 86 °C | –
CCC(Oc1ccc(Cl)cc1Cl)C(=O)NCc1ccc(F)cc1 (centres unmarked) [MBX-2084] | 4.3 µM | 7.4 µM | 108 °C | CC50 at 3 days [2, 4]: 45 µM
CCCC(Oc1ccc(Cl)cc1Cl)C(=O)NCc1ccc2c(c1)OCO2 (centres unmarked) [MBX-2085] | – | – | 92 °C | Secretion, % @50 μM (printed in the Secretion IC50 column) ([1]; Table 3, @50 μM): 14% @50 μM; Secretion, % @50 μM ([1]; @50 μM): 14% @50 μM; performance in T3SS-mediated secretion relative to MBX-1641, in words [1]: significantly inferior performance
CCCC(Oc1ccc(Cl)cc1Cl)C(=O)NCc1ccc(OC)c(OC)c1 (centres unmarked) [MBX-2086] | – | – | 82 °C | Secretion, % @50 μM ([1]; @50 μM): 18% @50 μM
CCCC(Oc1ccc(Cl)cc1Cl)C(=O)NCc1ccc(OC)cc1 (centres unmarked) [MBX-2087] | – | – | 103 °C | Secretion, % @50 μM ([1]; @50 μM): 16% @50 μM
CCCC(Oc1ccc(Cl)cc1Cl)C(=O)NCc1ccc(F)cc1 (centres unmarked) [MBX-2088] | – | – | – | Secretion, % @50 μM ([1]; @50 μM): 9% @50 μM
CC(C)C(Oc1ccc(Cl)cc1Cl)C(=O)NCc1ccc2c(c1)OCO2 (centres unmarked) [MBX-2146] | 100 µM | – | 74 °C | IC50 ([1]; read-out: Secretion IC50): 100 µM; performance in T3SS-mediated secretion relative to MBX-1641, in words [1]: significantly inferior performance
COc1ccc(CNC(=O)C(Oc2ccc(Cl)cc2Cl)C(C)C)cc1OC (centres unmarked) [MBX-2147] | 94.9 µM | > 100 µM | 109 °C | –
COc1ccc(CNC(=O)C(Oc2ccc(Cl)cc2Cl)C(C)C)cc1 (centres unmarked) [MBX-2148] | 210 µM | – | 77 °C | –
CC(C)C(Oc1ccc(Cl)cc1Cl)C(=O)NCc1ccc(F)cc1 (centres unmarked) [MBX-2149] | 1580 µM | – | 106 °C | –
CCC(Oc1ccc(Cl)cc1Cl)C(=O)N(C)Cc1ccc2c(c1)OCO2 (centres unmarked) [MBX-2159] | 19.1 µM | > 100 µM | – | –
CCC(Oc1ncc(Cl)cc1Cl)C(=O)NCc1ccc(F)cc1 (centres unmarked) [MBX-2264] | 2 µM | 30 µM | – | CC50 at 3 days [2, 4]: 85 µM; IC50 in the ExoS′βLA assay versus reference inhibitor MBX-1641, in words [1]: improvements
CCC(Oc1ncc(Cl)cc1Cl)C(=O)NCc1ccc2sccc2c1 (centres unmarked) [MBX-2401, N-(benzo[b]thiophen-5-ylmethyl)-2-(3,5-dichloropyridin-2-yloxy)butanamide] | – | – | – | inhibition of ExoS′-βLA secretion, in words [1]: potent inhibition of secretion
CCC(Oc1ncc(Cl)cc1Cl)C(=O)NCc1ccc2sccc2c1 (centres unmarked) [MBX-2402, N-(benzo[b]thiophen-5-ylmethyl)-2-(3,5-dichloropyridin-2-yloxy)butanamide] | – | – | – | inhibition of ExoS′-βLA secretion, in words [1]: little inhibitory effect
